{
  "source": "patent US7745390B2",
  "about": "“Antimicrobial peptides” (priority 2005, dated 2010)",
  "key": {"[1]": {"test_system": "B. cereus", "assay_type": "cell-based", "conditions": "pH 7.2", "summary_of_the_method": "(§1)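 First, peptides in 10 mM phosphate pH 7.2 with 0.03% LB meet bacteria (~5×10^6 CFU/ml). Second, incubation runs 3 h at 37 °C. Third, LB is added and plates grow overnight before OD600 reading.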"}, "[2]": {"test_system": "E. coli DH5a", "assay_type": "cell-based", "conditions": "DH5a", "summary_of_the_method": "as §1"}, "[3]": {"test_system": "Salmonella", "assay_type": "cell-based, S. typhimurium", "conditions": "pH 7.2", "summary_of_the_method": "as §1"}, "[4]": {"test_system": "bacteria", "test": "Activity in DMEM and RPMI media (lysis of bacteria)", "assay_type": "cell-based", "conditions": "either 10 mM phosphate buffer or DMEM", "procedure": "(§2) The CFU assay is the “gold standard” for evaluating antibiotics. Briefly, bacteria are grown overnight in rich medium, such as LB, and then diluted and grown in log phase for 2-4 hours. Cultures are set up as above, with the initial culture media being 10 mM phosphate buffer/0.03% LB; DMEM or RPMI; or DMEM or RPMI plus 10% serum (fetal calf, human, or mouse). After various periods of time, but generally 3 hours or less, aliquots are removed, diluted in LB at various dilutions, and plated on LB agar plates. Plates are incubated overnight at 37° C. and counted on an automatic colony counter.\nIn the column “Active in DMEM”, a blank means no activity. MAP stands for multiple antigenic peptide, where a number of identical peptide chains are synthesized and joined to a common core (like a dendrimer).\nThe peptides listed in Table 2 were tested in DMEM and RPMI, media that approximate blood and tissue conditions in vivo and those that were active under these conditions are listed in the last column (active in DMEM). […] No peptides that were all L-isomer peptides lysed bacteria in DMEM supplemented with serum.\nThe hydrophobic moment is a measure of amphipathicity and indicates how well the hydrophobic residues fall on one side of the helix while the hydrophilic residues fall on the opposite side is shown in column 7. This was determined using the Membrane Explorer Program (http://blanco.biomol.uci.edu/mpex/). A high number indicates a high hydrophobic moment. Column 8 again (like Table 2) indicates which of these peptides is active in DMEM."}, "[5]": {"test_system": "B. cereus", "test": "CFU assay in 10% FCS/DMEM", "assay_type": "cell-based", "conditions": "3 hrs", "procedure": "as §2\n(§3) Three preferred peptides G11.46, G12.21 and G14.15, discussed above, were further tested for antimicrobial efficacy under various conditions using the 10% FCS/DMEM assay as described under CFU assay. The incubation times with the bacteria and peptide was three hours, at which time the bacteria were diluted and plated on agar. […] The MIC for each compound is highlighted."}, "[6]": {"test_system": "E. coli", "test": "CFU assay in 10% FCS/DMEM", "assay_type": "cell-based", "conditions": "3 hrs", "procedure": "as §2, §3"}, "[7]": {"test_system": "Salmonella typhimurium", "test": "CFU assay in 10% FCS/DMEM", "assay_type": "cell-based", "conditions": "3 hrs", "procedure": "as §2, §3"}, "[8]": {"test_system": "Staphylococcus aureus", "test": "CFU assay in 10% FCS/DMEM", "assay_type": "cell-based", "conditions": "3 hrs", "procedure": "as §2, §3"}, "[9]": {"test_system": "antibiotic resistant bacteria obtained from clinical isolates", "test": "Susceptibility of antibiotic resistant clinical isolates in DMEM with or without serum", "assay_type": "cell-based", "procedure": "In addition to the data given above, the susceptibility of a panel of antibiotic resistant bacteria obtained from clinical isolates was tested. All of these are killed by the G11.46, G12.21, and G14.15 in DMEM with or without serum."}, "[10]": {"test_system": "S. aureus", "test": "Mouse wound model of luminescent S. aureus infection", "assay_type": "in vivo, BALB/c mice", "from_the_text": "In this protocol, BALB/c mice of 4-6 weeks of age were exposed to wounds on their backs, then inoculated with an infection of S. aureus, which had 10^5 cfu per pocket (2×10^7 […] DMEM) The S. aureus had been transfected with a plasmid containing luciferase as well as the substrate for luciferase. Using a special camera, light is detected from living bacteria in the wound. The light intensity is converted to a color scale. Controls received no peptide, and the treatment group received peptide at the indicated dose. Animals were imaged at 1, 3, 6 and 24 hrs."}, "[11]": {"test_system": "candida albicans SC5314", "test": "Percent survival of Candida albicans in phosphate buffer", "assay_type": "cell-based", "set-up": "dose or concentration left out as unconfirmed", "conditions": "37° C., 90 min. incubation", "from_the_text": "Germ tube formation is essential to Candida toxicity, so agents that prevent this (even in the absence of killing the organism) could have significant activity in vivo."}},
  "note": "Square brackets hold non-standard residues; d marks the D form. Peptide text beside a SMILES is read from it.",
  "data": [
    {"molecule": "CSCC[C@H](NC(=O)[C@H](Cc1ccccc1)NC(=O)[C@@H](CCCNC(=N)N)NC(=O)[C@@H](CCCNC(=N)N)NC(=O)[C@H](CO)NC(=O)[C@@H](NC(=O)[C@@H](CCCNC(=N)N)NC(=O)[C@@H](CCCNC(=N)N)NC(=O)[C@@H](CCCNC(=N)N)NC(=O)[C@@H](CCCNC(=N)N)NC(=O)[C@@H](CCCNC(=N)N)NC(=O)[C@@H](CCCNC(=N)N)NC(=O)[C@H](N)CCCNC(=N)N)C(C)C)C(=O)N[C@H](CCCNC(=N)N)C(=O)N[C@H](CCCNC(=N)N)C(=O)O", "note": "[Peptide G11.46, rrrrrrrVSrrFMrr] (H-[dR][dR][dR][dR][dR][dR][dR]VS[dR][dR]FM[dR][dR]-OH; N-terminus and C-terminus assumed)", "values": [
      {"measurement": "B. cereus MIC", "setting": "[1]", "value": 0.35, "unit": "µM"},
      {"measurement": "IC50", "setting": "[1]", "value": 200, "unit": "nM"},
      {"measurement": "MIC", "setting": "[2]", "value": 0.8, "unit": "µM"},
      {"measurement": "E. coli DH5a MIC", "setting": "[2]; pH 7.2", "value": 0.8, "unit": "µM"},
      {"measurement": "IC50", "setting": "[2]; pH 7.2", "value": 100, "unit": "nM"},
      {"measurement": "IC50", "setting": "[3]", "value": 210, "unit": "nM"},
      {"measurement": "Salmonella MIC", "setting": "[3]", "value": 0.7, "unit": "µM"},
      {"measurement": "lysis of bacteria and fungi", "setting": "[4]", "value": "lyse both gram negative bacteria and gram negative bacteria, as well as fungi"},
      {"measurement": "% Survival (CFU Assay)", "setting": "[5]; 0.005 uM", "value": 103.49, "unit": "%"},
      {"measurement": "% Survival (CFU Assay)", "setting": "[5]; 0.01 uM", "value": 44.62, "unit": "%"},
      {"measurement": "% Survival (CFU Assay)", "setting": "[5]; 0.02 uM", "value": "<0.5", "unit": "%"},
      {"measurement": "% Survival (CFU Assay)", "setting": "[5]; 0.04 uM", "value": 0.02, "unit": "%"},
      {"measurement": "% Survival (CFU Assay)", "setting": "[5]; 0.08 uM", "value": 0.002, "unit": "%"},
      {"measurement": "% Survival (CFU Assay)", "setting": "[5]; 0.16 uM", "value": 0.002, "unit": "%"},
      {"measurement": "% Survival (CFU Assay)", "setting": "[6]; 0.01 μM", "value": 98.89, "unit": "%"},
      {"measurement": "% Survival (CFU Assay)", "setting": "[6]; 0.02 μM", "value": 166.22, "unit": "%"},
      {"measurement": "% Survival (CFU Assay)", "setting": "[6]; 0.04 μM", "value": 132.25, "unit": "%"},
      {"measurement": "% Survival (CFU Assay)", "setting": "[6]; 0.08 μM", "value": 89.24, "unit": "%"},
      {"measurement": "% Survival (CFU Assay)", "setting": "[6]; 0.16 μM", "value": 31.77, "unit": "%"},
      {"measurement": "% Survival (CFU Assay)", "setting": "[6]; 0.32 μM", "value": 2.02, "unit": "%"},
      {"measurement": "% Survival (CFU Assay)", "setting": "[6]; 0.63 μM", "value": "<0.002", "unit": "%"},
      {"measurement": "% Survival (CFU Assay)", "setting": "[6]; 1.25 μM", "value": "<0.002", "unit": "%"},
      {"measurement": "% Survival (CFU Assay)", "setting": "[7]; 0.02 μM", "value": 116.09, "unit": "%"},
      {"measurement": "% Survival (CFU Assay)", "setting": "[7]; 0.04 μM", "value": 126.32, "unit": "%"},
      {"measurement": "% Survival (CFU Assay)", "setting": "[7]; 0.08 μM", "value": 105, "unit": "%"},
      {"measurement": "% Survival (CFU Assay)", "setting": "[7]; 0.16 μM", "value": 71.35, "unit": "%"},
      {"measurement": "% Survival (CFU Assay)", "setting": "[7]; 0.32 μM", "value": 24.68, "unit": "%"},
      {"measurement": "% Survival (CFU Assay)", "setting": "[7]; 0.63 μM", "value": 1.45, "unit": "%"},
      {"measurement": "% Survival (CFU Assay)", "setting": "[7]; 1.25 μM", "value": 0.03, "unit": "%"},
      {"measurement": "% Survival (CFU Assay)", "setting": "[7]; 2.5 μM", "value": "<0.002", "unit": "%"},
      {"measurement": "% Survival (CFU Assay)", "setting": "[8]; 0.005 μM", "value": 19.9, "unit": "%"},
      {"measurement": "% Survival (CFU Assay)", "setting": "[8]; 0.01 μM", "value": 8.04, "unit": "%"},
      {"measurement": "% Survival (CFU Assay)", "setting": "[8]; 0.02 μM", "value": 2.3, "unit": "%"},
      {"measurement": "% Survival (CFU Assay)", "setting": "[8]; 0.04 μM", "value": 0.84, "unit": "%"},
      {"measurement": "% Survival (CFU Assay)", "setting": "[8]; 0.08 μM", "value": 0.2, "unit": "%"},
      {"measurement": "% Survival (CFU Assay)", "setting": "[8]; 0.16 μM", "value": 0.02, "unit": "%"},
      {"measurement": "killing of antibiotic resistant clinical isolates", "setting": "[9]", "value": "killed"},
      {"measurement": "light units from S. aureus in wound", "setting": "[10]; 25 μg and 100 μg, data not shown", "value": "significant reduction in light units"},
      {"measurement": "light units from S. aureus in wound", "setting": "[10]; 100 μg, after 6 hrs.", "value": "light units approached levels obtained with the blank"},
      {"measurement": "recovery of bacteria", "setting": "[10]; by 24 hours", "value": "some recovery of bacteria by 24 hours"},
      {"measurement": "activity against candida albicans SC5314", "setting": "[11]", "value": "active"}
    ]}
  ]
}
